The assay addresses T1, FLT3 (Homo sapiens, UniProt P36888).
T1 sequence (P36888 27-993): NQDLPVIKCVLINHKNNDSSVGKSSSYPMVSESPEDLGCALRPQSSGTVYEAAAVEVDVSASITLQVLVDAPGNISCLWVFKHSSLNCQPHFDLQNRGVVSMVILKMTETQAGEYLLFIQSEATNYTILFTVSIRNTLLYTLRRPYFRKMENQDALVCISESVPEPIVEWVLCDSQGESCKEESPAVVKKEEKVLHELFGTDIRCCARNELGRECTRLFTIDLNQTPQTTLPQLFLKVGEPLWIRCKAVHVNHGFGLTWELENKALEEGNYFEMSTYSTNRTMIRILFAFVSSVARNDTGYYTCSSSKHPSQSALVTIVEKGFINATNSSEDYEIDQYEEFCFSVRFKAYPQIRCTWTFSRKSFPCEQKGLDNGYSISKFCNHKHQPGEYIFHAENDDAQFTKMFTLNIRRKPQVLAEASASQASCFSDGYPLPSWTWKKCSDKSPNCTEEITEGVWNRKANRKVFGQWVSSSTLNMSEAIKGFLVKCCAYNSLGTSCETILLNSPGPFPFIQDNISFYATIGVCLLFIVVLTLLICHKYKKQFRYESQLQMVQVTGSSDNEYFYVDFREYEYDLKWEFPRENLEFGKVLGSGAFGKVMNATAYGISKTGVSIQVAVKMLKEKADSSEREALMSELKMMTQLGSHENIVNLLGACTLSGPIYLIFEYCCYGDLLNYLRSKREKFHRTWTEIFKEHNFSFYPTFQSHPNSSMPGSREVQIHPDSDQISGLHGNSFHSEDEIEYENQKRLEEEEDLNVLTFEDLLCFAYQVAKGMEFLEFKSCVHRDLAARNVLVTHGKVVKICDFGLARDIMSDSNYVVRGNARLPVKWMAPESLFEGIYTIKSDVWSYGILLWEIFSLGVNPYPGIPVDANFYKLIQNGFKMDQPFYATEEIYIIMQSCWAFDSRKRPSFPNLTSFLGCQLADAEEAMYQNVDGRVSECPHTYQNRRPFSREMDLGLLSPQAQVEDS
The assay is described as follows: Kinase inhibition activity test, isotope labeling (γ-33P-ATP): FLT3. It counts as biochemical. The settings on record: test compound at a concentration of 10 μM. On the procedure:
The purpose of this experiment was to test the inhibitory activity of the compound of the invention for in vitro kinase with the isotope labeling method (the γ phosphate group on ATP was labeled). In this experiment, the in vitro activity inhibition of such kinases as FLT3, VEGFR2, FLT1, FLT4, RET, c-RAF, B-RAF, c-KIT, PDGFα, PDGFβ, FGFR2, FGFR1, EphA2, EphB2, SRC, ABL, ALK and Met was tested respectively. Staurosporine was reference molecule (or referred to as positive control). The kinase inhibition activity of the test compound was expressed by half-inhibitory concentration (IC50) or the kinase activity inhibition rate of the test compound at a concentration of 10 μM. The IC50 value could be obtained by calculating the kinase activity inhibition rate of the test compound at different concentrations.
20 mM 3-(N-morpholinyl)propanesulfonic acid (MOPS); 1 mM ethylenediaminetetraacetic acid (EDTA), 0.01% Brij 35 (Brij-35), 5% glycerol, 0.1% mercaptoethanol, 1 mg/mL bovine serum albumin (BSA), 10 mM manganous dichloride solution (MnCl2), 0.1 mg/mL glutamic acid/tyrosine (4:1) polypeptide (poly(Glu, Tyr)4:1), 50 μM EAIYAAPFAKKK (substrate of FLT3), 0.33 mg/mL myelin basic protein (substrate of VEGFR2), 250 μM KKKSPGEYVNIEFG (substrate of FLT1(h)), 500 μM GGEEEEYFELVKKKK (substrate of FLT4(h)), 250 μM KKKSPGEYVNIEFG (substrate of RET), 0.66 mg/mL myelin basic protein (substrate of C-RAF), 250 μM GGMEDIYFEFMGGKKK (substrate of c-Kit), 250 μM GGMEDIYFEFMGGKKK (substrate of PDGFα), 250 μM KKKSPGEYVNIEFG (substrate of FGFR1), […] GGEEEEYFELVKKKK (substrate of SRC), 50 μM EAIYAAPFAKKK (substrate of ABL), 250 μM KKKSPGEYVNIEFG (substrate of ALK), 250 μM KKKSPGEYVNIEFG (substrate of Met(h)), 10 mM magnesium acetate and γ-^33 P-ATP solution, stop buffer (3% phosphate buffer), washing buffer (75 mM phosphate solution), methanol, Filtermat A membrane, FLT3, VEGFR2, FLT3, VEGFR2, FLT1, FLT4, RET, c-RAF, B-RAF, c-KIT, PDGFRα, PDGFRβ, FGFR2, FGFR1, EphA2, EphB2, SRC, ABL, ALK, Met and other kinases, and the test compounds.
Buffers (8 mM MOPS with pH value of 7.0, 0.2 mM EDTA and 10 mM MnCl2), (5-10 mU) kinases to be tested (FLT3, VEGFR2, FLT1, FLT4, RET, c-RAF, B-RAF, c-KIT, PDGFRα, PDGFRβ, FGFR2, FGFR1, EphA2, EphB2, SRC, ABL, ALK and Met), substrates of kinases to be tested (refer to experimental materials), 10 mM magnesium acetate and γ-^33 P-ATP solution, and test compounds at different concentrations were added to a reaction tube orderly. […] Reaction was terminated with 5 μL 3% phosphate buffer finally, and 10 μL reaction solution was titrated to the Filtermat A membrane; solution was washed for 3 times with 75 mM phosphate solution with each time lasting 5 minutes, and then washed once with methanol. Finally, the Filtermat A membrane was dried, and scintillation counting was performed on the membrane, with scintillation count reflecting the phosphorylation degree of the substrates, so that the activity inhibition of kinase could be characterized.

The text below walks through data of US9828375B2, “4-position substituted pyrazolopyrimidine derivative, and use thereof in drug preparation” (Guangxi Wuzhou Pharmaceuticals (Group) Co., Ltd., priority 2012, dated 2017).

Where only a bound is given, the exact number is not on record here.

With `CC(C)(C)c1cc(NC(=O)Nc2ccc(Sc3ncnc4[nH]ncc34)cc2)no1` [4c-3, 1-(4-(1H-pyrazolopyrimidine-4-sulfydryl)phenyl)-3-(5-tert-butylisoxazol-3-yl)urea], the “Activity inhibition rate Flt3 (h)” value was over 90%.

For `CC(C)n1ncc2c(Oc3ccc(NC(=O)Nc4cc(C(C)(C)C)on4)cc3)ncnc21` [5a-4, 1-(5-tert-butylisoxazol-3-yl)-3-(4-(1-isopropyl-(1H-pyrazolopyrimidine-4-yl)oxy)phenyl)urea], under “read-out: Activity inhibition rate Flt3 (h)”, the inhibition (commonly how much of the control response was suppressed) at 10 µM was over 90%.
